Assay results reported in patent publication US7189732B2, “Pyrido[2,3-d]pyrimidine dichloro-phenyl derivatives” (Hoffman-La Roche Inc., priority 2004, dated 2007).
pIC50: −log10 of the molar value.

How the values were obtained:
Src (p60^c-src) = biological target: T1, Src (p60^c-src) (Homo sapiens, UniProt P12931); experiment: SRC-Inhibitor-Assay, time-resolved fluorescence kinase assay (Src); format: biochemical; details: ATP 5 μM; peptide 10 μM; enzyme 2.5 U/ml; pre-incubated 15 min at 15° C.
T1 construct: purchased Upstate Biotechnology, Inc., Lake Placid, N.Y. (UBI)
T1 sequence (P12931 whole entry): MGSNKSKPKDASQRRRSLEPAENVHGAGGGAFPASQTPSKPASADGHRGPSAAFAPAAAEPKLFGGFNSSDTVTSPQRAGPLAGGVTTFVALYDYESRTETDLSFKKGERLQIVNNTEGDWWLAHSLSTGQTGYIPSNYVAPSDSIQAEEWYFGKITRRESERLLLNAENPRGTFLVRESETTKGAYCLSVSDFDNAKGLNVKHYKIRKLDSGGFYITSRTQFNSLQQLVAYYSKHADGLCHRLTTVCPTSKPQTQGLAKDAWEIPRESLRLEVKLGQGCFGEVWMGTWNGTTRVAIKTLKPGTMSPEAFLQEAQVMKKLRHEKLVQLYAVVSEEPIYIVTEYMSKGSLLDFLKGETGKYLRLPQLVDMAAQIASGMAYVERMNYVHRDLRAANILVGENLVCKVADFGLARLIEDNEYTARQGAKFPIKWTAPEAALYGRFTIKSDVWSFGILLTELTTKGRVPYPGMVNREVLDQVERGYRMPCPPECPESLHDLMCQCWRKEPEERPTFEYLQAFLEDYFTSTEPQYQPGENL
Source text: (§1) The activity of the compounds according to this invention as inhibitors for the src-family tyrosine kinases was shown by using the following assay. As used herein Ro refers to the peptide: NH2-A-E-E-E-I-Y-G-E-F-E-A-K-K-K-K-CONH2(SEQ ID NO: 1); Ja133-Ro refers to the peptide: Ja133-G-Aminocaprylic acid-A-E-E-E-I-Y-G-E-F-E-A-K-K-K-K-CONH2(SEQ ID NO: 2), wherein Ja133 is LightCycler-Red 640-N-hydroxy succinimide ester; PT66 refers to a phosphotyrosine specific antibody which can detect the phoyphorylated tyrosine of protein tyrosine kinase; and TCEP refers to Tris(2-carboxyethyl)phosphine; Lck Cisbio Mab PT66-K refers to Anti-Phosphotyrosine (PT66)-Cryptate; and Src EG&G Wallac PT66 Eu-W1024 refers to Eu^3+-labelled Anti-Phosphotyrosine (PT66)-Cryptate.
(§2) whereby both peptides were synthesized by an optimized solid phase peptide synthesis protocol (Merrifield, Fed. Proc. Fed. Amer. Soc. Exp. Biol. 21(1962) 412) on a Zinsser SMP350 peptide synthesizer. Shortly, the peptide was assembled on 160 mg (22.8 μmol scale) of a Rink-Linker modified polystyrene solid phase by repeatedly conjugating an twenty fold excess of amino acids each protected by temporary piperidine labile Fmoc- and permanent acid labile tert-Bu-, BOC- and tert-BuO-groups depending on the side chain function. The substrate sequence AEEEIYGEFEAKKKK (SEQ ID NO: 1) was N-terminal additionally mounted with the spacer amino acids Aminocaprylic acid and Glycin. After cleavage of the N-terminal temporary protecting group the still attached and protected peptide was labeled with a 1.5 fold amount of LightCycler-Red 640-N-hydroxy succinimide ester (purchased by Roche Diagnostics GmbH) and triethylamine. After 3 hrs. the resin was washed with Dimethylformamide and Isopropanol until the eluates of the blue resin got colorless. […] The substrate was finally isolated by a preparative reverse phase HPLC purification. The purification yielded 12.2 mg RP-HPLC single peak pure blue material (lyophilisate). The identity was proven by Matrix Assisted Laser Desorption Ionization (MALDI) mass spectroscopy [2720.0]. Enzymes: Upstate Lck (p56^lck, active), Upstate Src (p60^c-src, partially purified) were purchased from Upstate Biotechnology, Inc., Lake Placid, N.Y. (UBI). Time-resolved Fluorescence Assay: Reader: Perkin Elmer, Wallac Viktor 1420-040 multilabel counter; Liquid handling system: Beckman Coulter, Biomek 2000. ATP, Tween 20, HEPES were purchased from Roche Molecular Biochemicals, MgCl2 and MnCl2 were purchased from Merck Eurolab, TCEP was purchased from Pierce, 384 Well low volume fluorescence plates was purchased from Falcon. Assay Description:
(§3) At first the enzyme is pre-incubated for 15 min. at 15° C. in aqueous solution with corresponding amounts of inhibitors according to this invention. Then the phosphorylation reaction is started by adding a reaction mixture, containing ATP, Peptide and PT66, and subsequent shaking. The proceeding of this reaction is immediately monitored using time resolved fluorescence spectroscopy in a suitable well plate reader.
(§4) The IC50-values can be obtained from the reaction rates by using a non-linear curve fit (EXCELFIT software, from ID Business Solution Ltd., Guilford, Surrey, UK).

Lck (p56^lck) = biological target: T2, Lck (p56^lck) (Homo sapiens, UniProt P06239); experiment: SRC-Inhibitor-Assay, time-resolved fluorescence kinase assay (Lck); format: biochemical; details: ATP 5 μM; peptide 10 μM; enzyme 2.5 U/ml; pre-incubated 15 min at 15° C.
T2 construct: purchased Upstate Biotechnology, Inc., Lake Placid, N.Y. (UBI)
T2 sequence (P06239 whole entry, species assumed): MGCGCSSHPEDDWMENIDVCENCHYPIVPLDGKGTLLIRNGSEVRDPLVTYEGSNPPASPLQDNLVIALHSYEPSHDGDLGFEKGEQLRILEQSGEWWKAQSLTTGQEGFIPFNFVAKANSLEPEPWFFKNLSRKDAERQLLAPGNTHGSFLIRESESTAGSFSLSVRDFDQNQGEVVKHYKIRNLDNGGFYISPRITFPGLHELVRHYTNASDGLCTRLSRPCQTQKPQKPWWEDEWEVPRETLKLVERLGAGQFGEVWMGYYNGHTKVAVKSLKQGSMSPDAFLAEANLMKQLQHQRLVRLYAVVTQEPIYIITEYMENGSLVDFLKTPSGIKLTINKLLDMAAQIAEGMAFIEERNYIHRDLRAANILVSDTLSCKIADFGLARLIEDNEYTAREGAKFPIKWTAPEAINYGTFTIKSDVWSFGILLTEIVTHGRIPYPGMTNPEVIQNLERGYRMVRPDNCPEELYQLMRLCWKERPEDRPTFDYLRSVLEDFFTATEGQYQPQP
Source text: as §1, §2, §3, §4

pIC50 (Src (p60^c-src)) | pIC50 (Lck (p56^lck)) | SMILES
8.96 | 8.80 | CS(=O)(=O)NCCNC(=O)c1nc2nc(Nc3ccc(OCCO)cc3)ncc2cc1-c1c(Cl)cccc1Cl [Example 6-4, 6-(2,6-Dichloro-phenyl)-2-[4-(2-hydroxy-ethoxy)-phenylamino]-pyrido[2,3-d]pyrimidine-7-carboxylic acid (2-methanesulfonylamino-ethyl)-amide]
9.22 | 8.77 | O=C(NC[C@H]1CCCN1)c1nc2nc(Nc3ccc(OCCO)cc3)ncc2cc1-c1c(Cl)cccc1Cl [Example 6-5, 6-(2,6-Dichloro-phenyl)-2-[4-(2-hydroxy-ethoxy)-phenylamino]-pyrido[2,3-d]pyrimidine-7-carboxylic acid ((R)-1-pyrrolidin-2-ylmethyl)-amide]
8.27 | 8.09 | O=C(NCCO)c1nc2nc(Nc3ccc(OCCO)cc3)ncc2cc1-c1c(Cl)cccc1Cl [Example 6-1, 6-(2,6-Dichloro-phenyl)-2-[4-(2-hydroxy-ethoxy)-phenylamino]-pyrido[2,3-d]pyrimidine-7-carboxylic acid (2-hydroxy-ethyl)-amide]
9.52 | 9.00 | CN1CCN(c2ccc(Nc3ncc4cc(-c5c(Cl)cccc5Cl)c(C(=O)NCCNS(C)(=O)=O)nc4n3)cc2)CC1 [Example 2, 6-(2,6-Dichloro-phenyl)-2-[4-(4-methyl-piperazin-1-yl)-phenylamino]-pyrido[2,3-d]pyrimidine-7-carboxylic acid (2-methanesulfonylamino-ethyl)-amide]
8.74 | 8.39 | O=C(NCCO)c1nc2nc(Nc3ccc(N4CCOCC4)cc3)ncc2cc1-c1c(Cl)cccc1Cl [Example 6-2, 6-(2,6-Dichloro-phenyl)-2-(4-morpholin-4-yl-phenylamino)-pyrido[2,3-d]pyrimidine-7-carboxylic acid (2-hydroxy-ethyl)-amide]
9.30 | 8.57 | CCN(CC)CCOc1ccc(Nc2ncc3cc(-c4c(Cl)cccc4Cl)c(C#N)nc3n2)cc1 [Example 7-1, 6-(2,6-Dichloro-phenyl)-2-[4-(2-diethylamino-ethoxy)-phenylamino]-pyrido[2,3-d]pyrimidine-7-carbonitrile]
9.00 | 8.43 | NC(=O)c1nc2nc(Nc3ccc(N4CCOCC4)cc3)ncc2cc1-c1c(Cl)cccc1Cl [Example 8-1, 6-(2,6-Dichloro-phenyl)-2-(4-morpholin-4-yl-phenylamino)-pyrido[2,3-d]pyrimidine-7-carboxylic acid amide]
9.70 | 8.89 | CS(=O)(=O)NCCNC(=O)c1nc2nc(Nc3cccc(NS(C)(=O)=O)c3)ncc2cc1-c1c(Cl)cccc1Cl [Example 6-6, 6-(2,6-Dichloro-phenyl)-2-(3-methanesulfonylamino-phenylamino)-pyrido[2,3-d]pyrimidine-7-carboxylic acid (2-methanesulfonylamino-ethyl)-amide]
9.05 | 8.82 | CS(=O)(=O)NCCNC(=O)c1nc2nc(Nc3ccc(N4CCOCC4)cc3)ncc2cc1-c1c(Cl)cccc1Cl [Example 6-3, 6-(2,6-Dichloro-phenyl)-2-(4-morpholin-4-yl-phenylamino)-pyrido[2,3-d]pyrimidine-7-carboxylic acid (2-methanesulfonylamino-ethyl)-amide]
8.66 | 8.12 | NC(=O)c1nc2nc(Nc3ccc(OCCO)cc3)ncc2cc1-c1c(Cl)cccc1Cl [Example 5, 6-(2,6-Dichloro-phenyl)-2-[4-(2-hydroxy-ethoxy)-phenylamino]-pyrido[2,3-d]pyrimidine-7-carboxylic acid amide]
8.77 | 8.19 | N#Cc1nc2nc(Nc3ccc(OCCO)cc3)ncc2cc1-c1c(Cl)cccc1Cl [Example 4, 6-(2,6-Dichloro-phenyl)-2-[4-(2-hydroxy-ethoxy)-phenylamino]-pyrido[2,3-d]pyrimidine-7-carbonitrile]
8.60 | 8.00 | CSc1cccc(Nc2ncc3cc(-c4c(Cl)cccc4Cl)c(C(=O)NCCNS(C)(=O)=O)nc3n2)c1 [Example 6-7, 6-(2,6-Dichloro-phenyl)-2-(3-methylsulfanyl-phenylamino)-pyrido[2,3-d]pyrimidine-7-carboxylic acid (2-methanesulfonylamino-ethyl)-amide]
8.89 | 7.93 | N#Cc1nc2nc(Nc3ccc(N4CCOCC4)cc3)ncc2cc1-c1c(Cl)cccc1Cl [Example 7-2, 6-(2,6-Dichloro-phenyl)-2-(4-morpholin-4-yl-phenylamino)-pyrido[2,3-d]pyrimidine-7-carbonitrile]
9.40 | 8.77 | O=C(NC[C@H]1CCCN1)c1nc2nc(Nc3ccc(N4CCOCC4)cc3)ncc2cc1-c1c(Cl)cccc1Cl [Example 1, 6-(2,6-Dichloro-phenyl)-2-(4-morpholin-4-yl-phenylamino)-pyrido[2,3-d]pyrimidine-7-carboxylic acid ((R)-1-pyrrolidin-2-ylmethyl)-amide]
8.33 | 8.11 | Cc1ccc(Nc2ncc3cc(-c4c(Cl)cccc4Cl)c(C(=O)NCCNS(C)(=O)=O)nc3n2)cn1 [Example 6-8, 6-(2,6-Dichloro-phenyl)-2-(6-methyl-pyridin-3-ylamino)-pyrido[2,3-d]pyrimidine-7-carboxylic acid (2-methanesulfonylamino-ethyl)-amide]
9.15 | 8.70 | CS(=O)(=O)NCCNC(=O)c1nc2nc(Nc3cccc(SCCO)c3)ncc2cc1-c1c(Cl)cccc1Cl [Example 3, 6-(2,6-Dichloro-phenyl)-2-[3-(2-hydroxy-ethylsulfanyl)-phenylamino]-pyrido[2,3-d]pyrimidine-7-carboxylic acid (2-methanesulfonylamino-ethyl)-amide]
